Assay results reported in the supplement of paper PMC10307832.

Experiments:
Assay in all cases: relative viability (nuclei count vs DMSO), 5 days (fraction); higher = more cells survive
[1] = compound: Cc1ccc2nc(NCCN)c3ncc(C)n3c2c1 + C[C@@H](Oc1cc(-c2cnn(C3CCNCC3)c2)cnc1N)c1c(Cl)ccc(F)c1Cl [Crizotinib] (partner 1 µM)
How it was run: (§1)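 Cells from lung cancer lines were seeded into 1536-well plates and, one day later, dosed by pin tool. Treatments were either a single drug or a fixed dose of an anchor drug with five library-drug doses (not always all listed) in √10 steps. After 5 days, nuclei were stained in a one-step fixation (final 0.05% Triton X-100, 1% formaldehyde, 1 ug/ml Hoechst) and counted on 4× images, and relative viability is the treated-to-vehicle nuclei ratio, as the median of duplicate plates.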

[2] = compound: Cc1ccc2nc(NCCN)c3ncc(C)n3c2c1 + C[C@]1(O)C[C@@H](c2nc(-c3ccc4ccc(-c5ccccc5)nc4c3)c3c(N)nccn32)C1 [Linsitinib] (partner 1 µM)
How it was run: as §1

Salubrinal + Palbociclib = compound: O=C(/C=C/c1ccccc1)NC(NC(=S)Nc1cccc2cccnc12)C(Cl)(Cl)Cl [Salubrinal] + CC(=O)c1c(C)c2cnc(Nc3ccc(N4CCNCC4)cn3)nc2n(C2CCCC2)c1=O [Palbociclib] (partner 0.5 µM)
How it was run: as §1

Salubrinal + Decitabine = compound: O=C(/C=C/c1ccccc1)NC(NC(=S)Nc1cccc2cccnc12)C(Cl)(Cl)Cl [Salubrinal] + Nc1ncn([C@H]2C[C@H](O)[C@@H](CO)O2)c(=O)n1 [Decitabine] (partner 2 µM)
How it was run: as §1

Cell Line	relative viability ([1]; first compound 0.04 µM)	relative viability ([1]; first compound 0.1265 µM)	relative viability ([1]; first compound 0.4 µM)	relative viability ([1]; first compound 1.265 µM)	relative viability ([1]; first compound 4 µM)	relative viability ([2]; first compound 0.04 µM)	relative viability ([2]; first compound 0.1265 µM)	relative viability ([2]; first compound 0.4 µM)	relative viability ([2]; first compound 1.265 µM)	relative viability ([2]; first compound 4 µM)	relative viability (Salubrinal + Palbociclib; first compound 0.08 µM)	relative viability (Salubrinal + Palbociclib; first compound 0.253 µM)	relative viability (Salubrinal + Palbociclib; first compound 0.8 µM)	relative viability (Salubrinal + Palbociclib; first compound 2.53 µM)	relative viability (Salubrinal + Palbociclib; first compound 8 µM)	relative viability (Salubrinal + Decitabine; first compound 0.08 µM)	relative viability (Salubrinal + Decitabine; first compound 0.253 µM)	relative viability (Salubrinal + Decitabine; first compound 0.8 µM)	relative viability (Salubrinal + Decitabine; first compound 2.53 µM)	relative viability (Salubrinal + Decitabine; first compound 8 µM)
NCI-H1651	0.732	0.795	0.838	0.888	0.814	0.982	0.837	0.982	0.928	0.795	0.561	0.479	0.564	0.513	0.508	0.654	0.542	0.681	0.634	0.661
NCI-H1666	0.998	1.01	0.874	0.852	0.907	0.909	0.843	0.942	0.822	0.71	0.687	0.593	0.632	0.641	0.603	0.741	0.726	0.788	0.712	0.895
NCI-H1734	0.673	0.733	0.747	0.607	0.706	0.887	0.803	0.765	0.884	0.814	0.393	0.334	0.392	0.344	0.343	0.573	0.51	0.527	0.474	0.477
NCI-H1755	0.94	0.891	0.857	0.935	0.863	0.989	1	0.934	1.07	0.946	0.486	0.415	0.446	0.462	0.493	0.759	0.686	0.744	0.725	0.68
NCI-H1792	1.03	1.03	0.946	1.01	0.905	0.627	0.543	0.484	0.463	0.405	0.789		0.678	0.686	0.66	0.608		0.741	0.49	0.405
NCI-H1915	0.823		0.816	0.868	0.914	1.1		1.16	1.1	1	0.506		0.576	0.559	0.568	0.249		0.268	0.248	0.246
NCI-H1944	1.05	1.18	1.09	1.19	1.09	1.06	1.3	1.21	1.23	1.19	0.394	0.372	0.315	0.299	0.337	0.445	0.452	0.43	0.476	0.428
NCI-H1975	1.05	0.965	0.957	0.771	0.757	0.972	0.93	0.91	0.897	0.893	0.473	0.424	0.675	0.717	0.567	0.315	0.357	0.351	0.389	0.366
NCI-H1993	0.822	0.896	0.811	0.812	0.826	0.726	0.763	0.673	0.75	0.73	0.718	0.596	0.737		0.648	0.567	0.662	0.593		0.59
